Results from PMC5472308, “Characterization of the regulation of a plant polysaccharide utilization operon and its role in biofilm formation in Bacillus subtilis” (PLoS ONE, 2017).

Biological target: T1, LacZ (Escherichia coli, UniProt P00722)
T1 construct: lacZ reporter of plasmid pDG268 (PganS-lacZ at amyE) expressed in B. subtilis YC1074 (ganR R20H, ganA deleted); cleared sonicated lysate
Format: biochemical
Details: 2.5 mM ONPG; Z buffer; qualitative

T1 sequence (P00722 2-1024): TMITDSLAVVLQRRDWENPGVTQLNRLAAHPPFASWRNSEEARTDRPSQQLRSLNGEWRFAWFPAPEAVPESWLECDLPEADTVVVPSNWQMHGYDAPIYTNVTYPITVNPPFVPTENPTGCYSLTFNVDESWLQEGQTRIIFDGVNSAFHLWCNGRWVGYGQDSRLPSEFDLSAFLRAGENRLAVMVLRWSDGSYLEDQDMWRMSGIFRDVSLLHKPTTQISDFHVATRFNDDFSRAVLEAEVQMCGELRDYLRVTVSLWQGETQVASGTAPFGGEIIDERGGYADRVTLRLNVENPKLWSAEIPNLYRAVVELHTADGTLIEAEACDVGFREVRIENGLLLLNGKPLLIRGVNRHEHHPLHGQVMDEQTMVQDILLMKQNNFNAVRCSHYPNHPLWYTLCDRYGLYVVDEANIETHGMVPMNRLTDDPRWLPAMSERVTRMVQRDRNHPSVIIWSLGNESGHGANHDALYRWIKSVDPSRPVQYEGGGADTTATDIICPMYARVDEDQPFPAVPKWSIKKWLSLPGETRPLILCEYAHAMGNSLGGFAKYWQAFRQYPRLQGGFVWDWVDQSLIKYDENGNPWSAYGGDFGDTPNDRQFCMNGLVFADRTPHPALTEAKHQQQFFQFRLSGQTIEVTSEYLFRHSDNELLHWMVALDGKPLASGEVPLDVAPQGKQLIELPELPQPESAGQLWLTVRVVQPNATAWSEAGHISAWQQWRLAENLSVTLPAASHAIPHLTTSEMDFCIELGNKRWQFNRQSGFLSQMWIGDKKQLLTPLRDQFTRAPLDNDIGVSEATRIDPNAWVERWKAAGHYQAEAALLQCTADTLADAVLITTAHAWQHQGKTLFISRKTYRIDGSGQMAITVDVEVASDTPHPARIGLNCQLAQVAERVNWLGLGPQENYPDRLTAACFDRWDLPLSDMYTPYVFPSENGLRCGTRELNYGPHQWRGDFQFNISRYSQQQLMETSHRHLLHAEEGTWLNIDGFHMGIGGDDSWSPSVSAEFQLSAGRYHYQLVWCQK

## OC[C@H]1OC(O)[C@H](O)[C@@H](O)[C@H]1O (stereo partly shown) [galactose]
  % activity with 2.5-20 mM galactose: we only observed very weak inhibition of catalytic activities of LacZ
